One block for each compound: values may come before it. The source made the active and inactive calls. No cut-off for these calls is given here.
How the values were obtained:
B16 = test: Antiproliferative activity against mouse B16 cells after 72 hrs by MTT assay; format: functional, cell-based; settings: B16, 72 h
CT26 [1] = test: Induction of apoptosis in mouse CT26 cells assessed as apoptotic cells at 6 uM measured by Annexin V-FITC/PI staining based flow cytometry method; format: functional
[2] = Stability in mouse plasma incubated for 6 hrs in presence of NADPH and measured by LC-MS/MS analysis; format: ADME, cell-free; settings: read-out: Stability
[3] = Stability in human plasma incubated for 6 hrs in presence of NADPH and measured by LC-MS/MS analysis; format: ADME, cell-free; settings: read-out: Stability
[4] = Stability in mouse liver microsomes assessed as half-life and measured by LC-MS/MS analysis; format: ADME, Microsome
[5] = Stability in mouse liver microsomes assessed as clearance and measured by LC-MS/MS analysis; format: ADME, Microsome; settings: read-out: CLH
[6] = Stability in human liver microsomes assessed as half-life and measured by LC-MS/MS analysis; format: ADME, Microsome
[7] = Stability in human liver microsomes assessed as clearance and measured by LC-MS/MS analysis; format: ADME, Microsome; settings: read-out: CLH
CT26 [8] = test: Antitumor immunity in C57BL/6 mouse xenografted with mouse CT26 cells assessed as increase in CD3+ CD8+ cytotoxic T cells at 100 mg/kg, po administered once daily for 21 days measured by flow cytometry analysis; format: functional; settings: time 21 day
CT26 [9] = test: Antitumor immunity in C57BL/6 mouse xenografted with mouse CT26 cells assessed as decrease in number of CD4+CD25+ CD127- T regulatory cells at 100 mg/kg, po administered once daily for 21 days measured by flow cytometry analysis; format: functional; parameters: scale not given: the % may be the effect or the level left; settings: time 21 day
CT26 [10] = test: Antitumor immunity in C57BL/6 mouse xenografted with mouse CT26 cells assessed as decrease in number of CD8+IFNgamma+ T cells at 100 mg/kg, po administered once daily for 21 days measured by flow cytometry analysis; format: functional; parameters: scale not given: the % may be the effect or the level left; settings: time 21 day
CT26 [11] = test: Antitumor immunity in C57BL/6 mouse xenografted with mouse CT26 cells assessed as increase in CD3+ cytotoxic T cells at 50 mg/kg, po administered once daily for 21 days measured by flow cytometry analysis; format: functional; settings: time 21 day
Histone deacetylase 2 = Histone deacetylase 2 (Homo sapiens, UniProt Q92769)
Histone deacetylase 2, sequence (Q92769 whole entry): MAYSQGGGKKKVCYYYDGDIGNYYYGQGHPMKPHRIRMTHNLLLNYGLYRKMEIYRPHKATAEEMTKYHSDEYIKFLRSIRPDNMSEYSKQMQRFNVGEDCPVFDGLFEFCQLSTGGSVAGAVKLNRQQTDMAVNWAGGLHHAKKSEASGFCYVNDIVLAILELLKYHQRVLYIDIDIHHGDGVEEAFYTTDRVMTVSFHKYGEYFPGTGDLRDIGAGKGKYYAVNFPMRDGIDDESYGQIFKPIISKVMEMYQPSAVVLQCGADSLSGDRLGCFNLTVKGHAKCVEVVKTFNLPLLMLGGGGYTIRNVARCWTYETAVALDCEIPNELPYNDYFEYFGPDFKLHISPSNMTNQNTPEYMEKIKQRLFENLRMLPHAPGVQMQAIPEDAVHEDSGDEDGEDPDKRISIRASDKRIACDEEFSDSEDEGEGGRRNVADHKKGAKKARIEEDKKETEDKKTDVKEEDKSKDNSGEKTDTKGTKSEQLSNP
Description: Inhibition of HDAC2 (unknown origin) using Boc-Lys-(acetyl)-AMC as substrate incubated for 0.5 hr and measured after 20 mins by fluorescence assay

Histone deacetylase 3 = Histone deacetylase 3 (Homo sapiens, UniProt O15379); test: Inhibition of HDAC3 (unknown origin)
Histone deacetylase 3, sequence (O15379 whole entry): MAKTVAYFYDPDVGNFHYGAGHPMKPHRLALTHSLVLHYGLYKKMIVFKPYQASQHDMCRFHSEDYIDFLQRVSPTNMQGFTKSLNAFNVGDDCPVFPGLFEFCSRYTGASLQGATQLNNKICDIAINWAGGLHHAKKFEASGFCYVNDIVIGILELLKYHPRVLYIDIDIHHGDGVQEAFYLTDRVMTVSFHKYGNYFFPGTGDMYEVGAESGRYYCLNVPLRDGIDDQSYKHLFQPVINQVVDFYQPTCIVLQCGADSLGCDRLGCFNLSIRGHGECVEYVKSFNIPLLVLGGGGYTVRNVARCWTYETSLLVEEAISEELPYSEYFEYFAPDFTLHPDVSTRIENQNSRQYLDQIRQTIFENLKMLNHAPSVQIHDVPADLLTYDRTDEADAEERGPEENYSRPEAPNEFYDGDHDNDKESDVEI

Histone deacetylase 8 = target: T1, Histone deacetylase 8 (Homo sapiens, UniProt Q9BY41); test: Inhibition of HDAC8 (unknown origin) using Boc-Lys-(triflouroacetyl)-AMC as substrate incubated for 0.5 hr and measured after 20 mins by fluorescence assay
T1 sequence (Q9BY41 whole entry): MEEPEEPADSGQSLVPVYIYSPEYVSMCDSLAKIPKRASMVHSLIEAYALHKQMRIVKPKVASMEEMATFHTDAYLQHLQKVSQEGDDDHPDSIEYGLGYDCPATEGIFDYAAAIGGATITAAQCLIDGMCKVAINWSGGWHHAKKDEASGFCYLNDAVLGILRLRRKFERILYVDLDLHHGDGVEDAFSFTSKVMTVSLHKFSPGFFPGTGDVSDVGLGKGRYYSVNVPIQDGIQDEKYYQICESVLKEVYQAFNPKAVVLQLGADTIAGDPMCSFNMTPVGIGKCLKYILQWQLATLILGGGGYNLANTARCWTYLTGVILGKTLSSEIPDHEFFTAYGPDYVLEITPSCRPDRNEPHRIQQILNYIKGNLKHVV

[12] = target: T2, Protein deacetylase HDAC6 (Mus musculus) (UniProt Q9Z2V5); test: Inhibition of HDAC6 in mouse B16 cells assessed as accumulation of acetylated alpha-tubulin level after 24 hrs by Western blotting analysis; format: cell-based
T2 sequence (whole entry): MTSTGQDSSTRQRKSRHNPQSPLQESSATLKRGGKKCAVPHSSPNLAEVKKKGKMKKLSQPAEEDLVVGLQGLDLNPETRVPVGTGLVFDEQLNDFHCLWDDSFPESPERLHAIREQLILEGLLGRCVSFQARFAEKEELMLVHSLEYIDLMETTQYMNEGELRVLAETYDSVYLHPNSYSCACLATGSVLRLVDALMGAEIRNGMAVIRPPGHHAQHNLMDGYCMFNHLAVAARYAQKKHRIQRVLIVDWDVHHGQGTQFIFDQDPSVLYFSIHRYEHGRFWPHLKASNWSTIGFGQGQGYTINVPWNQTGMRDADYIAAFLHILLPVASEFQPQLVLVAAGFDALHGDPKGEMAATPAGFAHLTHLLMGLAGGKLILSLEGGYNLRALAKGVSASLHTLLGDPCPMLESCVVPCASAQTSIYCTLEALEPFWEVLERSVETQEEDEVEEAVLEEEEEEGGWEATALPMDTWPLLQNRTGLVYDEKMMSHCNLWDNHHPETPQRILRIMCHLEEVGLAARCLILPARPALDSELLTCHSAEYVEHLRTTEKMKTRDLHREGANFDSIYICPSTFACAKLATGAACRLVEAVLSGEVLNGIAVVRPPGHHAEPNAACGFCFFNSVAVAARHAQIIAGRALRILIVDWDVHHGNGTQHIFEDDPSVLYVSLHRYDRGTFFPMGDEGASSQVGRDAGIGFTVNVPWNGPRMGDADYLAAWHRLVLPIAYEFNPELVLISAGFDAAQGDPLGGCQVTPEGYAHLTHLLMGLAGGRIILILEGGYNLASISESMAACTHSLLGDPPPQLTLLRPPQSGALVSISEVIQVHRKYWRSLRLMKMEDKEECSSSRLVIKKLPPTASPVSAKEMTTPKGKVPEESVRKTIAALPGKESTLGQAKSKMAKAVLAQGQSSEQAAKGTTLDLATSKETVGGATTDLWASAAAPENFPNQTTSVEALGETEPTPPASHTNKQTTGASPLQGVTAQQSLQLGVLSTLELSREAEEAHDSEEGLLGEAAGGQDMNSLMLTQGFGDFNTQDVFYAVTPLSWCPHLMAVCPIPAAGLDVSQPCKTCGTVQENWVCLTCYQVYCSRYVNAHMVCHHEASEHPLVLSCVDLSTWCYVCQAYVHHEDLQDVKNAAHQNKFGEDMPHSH

[13] = target: T2, Protein deacetylase HDAC6 (Mus musculus); test: Inhibition of HDAC6 in mouse B16 cells assessed as accumulation of acetylated alpha-tubulin level at 6 uM after 2 to 12 hrs by Western blotting analysis; format: cell-based; settings: time 2-12 hrs, TDE = time-dependent effect
[14] = target: T2, Protein deacetylase HDAC6 (Mus musculus); test: Inhibition of HDAC6 in mouse B16 cells assessed as accumulation of acetylated alpha-tubulin level at 2 to 6 uM after 24 hrs by Western blotting analysis; format: cell-based; settings: dose 2-6 µM, DDE = dose-dependent effect
[15] = target: T2, Protein deacetylase HDAC6 (Mus musculus); test: Inhibition of HDAC6 in mouse CT26 cells assessed as accumulation of acetylated alpha-tubulin level at 6 uM after 2 to 24 hrs by Western blotting analysis; format: cell-based; settings: time 2-24 hrs, TDE = time-dependent effect
[16] = target: T2, Protein deacetylase HDAC6 (Mus musculus); test: Inhibition of HDAC6 in mouse CT26 cells assessed as accumulation of acetylated alpha-tubulin level at 2 to 6 uM after 24 hrs by Western blotting analysis; format: cell-based; settings: dose 2-6 µM, DDE = dose-dependent effect

Structure (SMILES): COc1cc(OCc2cccc(-c3ccccc3)c2C)cc(OC)c1CNCCCCCCC(=O)NO
IC50 (Histone deacetylase 2): 0.172 µM | IC50 (Histone deacetylase 3): 0.046 µM | IC50 (Histone deacetylase 8): 2.18 µM | acetylated alpha-tubulin accumulation [12]: Active | inhibition [13]: Tde | inhibition [14]: Dde | inhibition [15]: Tde | inhibition [16]: Dde | remaining at 6 h [2]: 23% | remaining at 6 h [3]: 97% | half-life ([4]; liver microsomes): 1.13 h | microsomal CLint [5]: 20.4 µL/min/mg | half-life [6]: 1.7 h | microsomal CLint [7]: 34.1 µL/min/mg

Structure (SMILES): COc1cc(OCc2cccc(-c3ccc4c(c3)OCCO4)c2C)cc(OC)c1CNCCCCCC(=O)NO
acetylated alpha-tubulin accumulation [12]: Active

Further lines, with some results ahead:

IC50 (B16): 2.26 µM | remaining at 6 h [2]: 20% | remaining at 6 h [3]: 77% | t1/2 ([4]; microsomes): 11.6 h | microsomal CLint [5]: 2.04 µL/min/mg | half-life [6]: 4.32 h | microsomal CLint [7]: 4.02 µL/min/mg
Structure (SMILES): O=C(CCCCCCC(=O)Nc1ccccc1)NO [VORINOSTAT]
Activity (CT26 [1]): 26% | Activity (CT26 [8]): 32.56% | Activity (CT26 [9]): 27.99% | Activity (CT26 [10]): 21.12% | Activity (CT26 [11]): 57.83%

acetylated alpha-tubulin accumulation [12]: Active
Structure (SMILES): COc1cc(OCc2cccc(-c3ccccc3)c2C)cc(OC)c1CNCCCCCC(=O)NO

acetylated alpha-tubulin accumulation [12]: Active
Structure (SMILES): Cc1c(COc2ccc(CNCCCCCCC(=O)NO)c(OCc3cccc(C#N)c3)c2)cccc1-c1ccccc1

From ChEMBL document CHEMBL5143616, “Novel biphenyl-based scaffold as potent and selective histone deacetylase 6 (HDAC6) inhibitors: Identification, development and pharmacological evaluation” (Eur J Med Chem, 2022)
